Test results: patent US12214092B2, “Systems and methods for treating biological fluids” (Cerus Corporation, priority 2017, dated 2025)

Key:
[1] = Photochemical conversion of S-59 (150 μM) and photoproduct profile in plasma, PAS or PAS+plasma units, HPLC; assay type: physicochemical
[2] = S-59 photoconversion in E. coli-spiked plasma, HPLC; assay type: physicochemical
Method: Bacterial titer results pre- and post-UVA treatment are shown in the following Table 4, along with the levels of bacterial inactivation obtained (log reduction). Additionally, the efficiency of photoconversion of amotosalen (S-59) was also determined and shown as percent remaining S-59 after each indicated treatment condition. LOQ represents the limit of quantification. Bacterial titers were analyzed pre- and post-UVA treatment to determine bacterial inactivation levels, which are shown as log reduction in the following Table 5. Additionally, S-59 photoconversion was also determined by HPLC and shown as both absolute concentration and percent remaining after each indicated treatment condition.

[3] = S-59 photoconversion in apheresis platelets in 100% plasma, 15 μM S-59, HPLC; assay type: physicochemical
Description: Additional units were illuminated with the INT-100 device at ˜3.6 J/cm^2 for comparison or maintained as an untreated control.

[4] = Amotosalen concentration in platelets in 100% plasma (75 μM/340 nm or 150 μM/INT-100), HPLC; assay type: physicochemical
[5] = S-59 photoconversion and photoproducts in platelets in 65% PAS III/35% plasma, 150 μM S-59, HPLC; conditions: for % Residual S-59: 3x (~10.8 J/cm^2)
Method: Platelets collected in PAS/Plasma (65% PAS III/35% Plasma) were pooled and split into three 285 mL units for the study. Amotosalen (S-59) was added to a concentration of 150 μM, and the units were illuminated one time (˜3.6 J/cm^2 total dose), two times (˜7.2 J/cm^2 total dose), or three times (˜10.8 J/cm^2 total dose) with the narrow band 340 nm LEDs or 365 nm LEDs using the device of Example 1, or with the INT-100 device. Efficiency of S-59 photoconversion, as well as photoproducts formation, was assessed post-UVA illumination by HPLC as in previous Examples.
HPLC analysis of post-illumination samples was used to determine area counts and relative levels for photoproducts generated from the various treatment conditions.

[6] = Amotosalen concentration pre- and post-UV in platelets (plasma or PAS/plasma), 340 nm ~7.2 J/cm^2, HPLC
Method: A study was performed to evaluate the photoconversion of amotosalen in platelets in 10000 plasma, as well as function of the platelets over 7 days (Day 3, Day 7) following photochemical treatment using the 340 nm device of the present disclosure. Multiple donor platelet units in 10000 plasma (5 units, ˜278-391 mL) were pooled and split into 5 units of ˜285 mL each, to be used as an untreated control, or treated with amotosalen at different concentrations, with ultraviolet A illumination using the 340 nm device. Amotosalen was added to a concentration of 30, 60, 90 or 110 μM, then pre-illumination (pre-UV) samples were removed for analysis, and the remainder of the units subjected to illumination at ˜7.2 J/cm^2. Post-illumination (Post-UV) samples were then removed for post-treatment analysis.

[7] = 65/35 PAS+Plasma, 340 nm LED ~3.6 J/cm^2
[8] = 65/35 PAS+Plasma, 365 nm LED ~3.6 J/cm^2
[9] = 340 nm, 220 mL plasma, 15 μM, ~6.4 J/cm^2
[10] = 340 nm, 350 mL plasma, 15 μM, ~6.4 J/cm^2
[11] = INT-100, 220 mL plasma, 15 μM, ~6.4 J/cm^2
[12] = INT-100, 350 mL plasma, 15 μM, ~6.4 J/cm^2

Cc1oc2c(C)c3oc(=O)cc(C)c3cc2c1COCCN [S-59, 3-(2-aminoethoxymethyl)-2,5,9-trimethylfuro[3,2-g]chromen-7-one]
% of input S-59 remaining [1, 7]: 9.1%
Post-illumination HPLC area counts [1, 7]: 1249
% of input S-59 remaining [1, 8]: 46.2%
Post-illumination HPLC area counts [1, 8]: 5889
% of input S-59 remaining ([1]; PAS, 340 nm LED ~3 J/cm^2): 13.4%
Post-illumination HPLC area counts ([1]; PAS, 340 nm LED ~3 J/cm^2): 1436
% of input S-59 remaining ([1]; PAS, 365 nm LED ~3 J/cm^2): 36.8%
Post-illumination HPLC area counts ([1]; PAS, 365 nm LED ~3 J/cm^2): 4118
% of input S-59 remaining ([1]; PAS, INT100 ~6.4 J/cm^2): 26.2%
Post-illumination HPLC area counts ([1]; PAS, INT100 ~6.4 J/cm^2): 2905
% of input S-59 remaining ([1]; Plasma, 340 nm LED ~6.4 J/cm^2): 33.1%
Post-illumination HPLC area counts ([1]; Plasma, 340 nm LED ~6.4 J/cm^2): 4957
% of input S-59 remaining ([1]; Plasma, 365 nm LED ~6.4 J/cm^2): 66.8%
Post-illumination HPLC area counts ([1]; Plasma, 365 nm LED ~6.4 J/cm^2): 9675
% of input S-59 remaining ([1]; Plasma, INT100 ~6.4 J/cm^2): 60.5%
Post-illumination HPLC area counts ([1]; Plasma, INT100 ~6.4 J/cm^2): 8513
% S-59 remaining ([2]; 340 nm, 1.5 μM, ~3 J/cm^2): 9.0%
% S-59 remaining ([2]; 340 nm, 1.5 μM, ~6 J/cm^2): <LOQ
% S-59 remaining ([2]; 340 nm, 1.5 μM, ~9 J/cm^2): <LOQ
% S-59 remaining ([2]; 340 nm, 15 μM, ~3 J/cm^2): 13.5%
% S-59 remaining ([2]; 340 nm, 15 μM, ~6 J/cm^2): 2.5%
% S-59 remaining ([2]; 340 nm, 15 μM, ~9 J/cm^2): <LOQ
% S-59 remaining ([2]; 340 nm, 150 μM, ~3 J/cm^2): 39.9%
% S-59 remaining [2, 9]: 3.0%
S-59 Remaining [2, 9]: 0.5 µM
% S-59 remaining [2, 10]: 8.0%
S-59 Remaining [2, 10]: 1.1 µM
% S-59 remaining ([2]; INT-100, 15 μM, ~3 J/cm^2): 40.5%
% S-59 remaining ([2]; INT-100, 150 μM, ~3 J/cm^2): 63.0%
% S-59 remaining [2, 11]: 26.0%
S-59 Remaining [2, 11]: 4.0 µM
% S-59 remaining [2, 12]: 37.0%
S-59 Remaining [2, 12]: 5.5 µM
S-59 concentration post-illumination ([3]; 340 nm LED 1× (~3.6 J/cm^2), <LOQ): 0.86 µM
S-59 concentration post-illumination ([3]; 340 nm LED 2× (~7.2 J/cm^2), <LOQ): 0.19 µM
S-59 concentration post-illumination ([3]; 340 nm LED 3× (~10.8 J/cm^2), <LOQ): 0.00 µM
S-59 concentration post-illumination ([3]; INT-100, ~3.6 J/cm^2): 4.11 µM
% Residual S-59 ([4]; 340/~6.4 (75 μM input)): 2.5%
S-59 concentration ([4]; 340/~6.4 (75 μM input), Post-UVA): 2.4 µM
S-59 concentration ([4]; 340/~6.4 (75 μM input), Pre-UVA): 93.3 µM
% Residual S-59 ([4]; 340/~7.2 (75 μM input)): 2.0%
S-59 concentration ([4]; 340/~7.2 (75 μM input), Post-UVA): 1.9 µM
S-59 concentration ([4]; 340/~7.2 (75 μM input), Pre-UVA): 94.0 µM
S-59 concentration ([4]; INT-100 (150 μM input), Post-CAD): 0.2 µM
S-59 concentration ([4]; INT-100 (150 μM input), Pre-UVA): 173.2 µM
% Residual S-59 ([4]; INT-100 ~3.6 J/cm^2 (150 μM input)): 40.1%
S-59 concentration ([4]; INT-100 ~3.6 J/cm^2 (150 μM input), Post-UVA): 69.4 µM
S-59 concentration post-illumination ([5]; 340 nm LED, ~3.6 J/cm^2): 9 µM
S-59 concentration post-illumination ([5]; 340 nm LED, ~7.2 J/cm^2): 2 µM
S-59 concentration post-illumination ([5]; 340 nm LED, ~10.8 J/cm^2, <LOQ): 0.98 µM
HPLC area counts ([5]; 340 nm, 0 J/cm^2): 1826
% Residual S-59 ([5]; 340 nm): 0.5%
HPLC area counts ([5]; 340 nm, 3.6 J/cm^2): 106
HPLC area counts ([5]; 340 nm, 7.2 J/cm^2): 24
HPLC area counts ([5]; 340 nm, 10.8 J/cm^2): 11
S-59 concentration post-illumination ([5]; 365 nm LED, ~3.6 J/cm^2): 42 µM
S-59 concentration post-illumination ([5]; 365 nm LED, ~7.2 J/cm^2): 15 µM
S-59 concentration post-illumination ([5]; 365 nm LED, ~10.8 J/cm^2): 7 µM
HPLC area counts ([5]; 365 nm, 0 J/cm^2): 1753
% Residual S-59 ([5]; 365 nm): 4.9%
HPLC area counts ([5]; 365 nm, 3.6 J/cm^2): 514
HPLC area counts ([5]; 365 nm, 7.2 J/cm^2): 183
HPLC area counts ([5]; 365 nm, 10.8 J/cm^2): 84
HPLC area counts ([5]; INT 100, 0 J/cm^2): 1753
% Residual S-59 ([5]; INT 100): 3.1%
HPLC area counts ([5]; INT 100, 3.6 J/cm^2): 396
HPLC area counts ([5]; INT 100, 7.2 J/cm^2): 129
HPLC area counts ([5]; INT 100, 10.8 J/cm^2): 56
S-59 concentration post-illumination ([5]; INT-100, ~3.6 J/cm^2): 32 µM
S-59 concentration post-illumination ([5]; INT-100, ~7.2 J/cm^2): 11 µM
S-59 concentration post-illumination ([5]; INT-100, ~10.8 J/cm^2): 5 µM
Amotosalen concentration ([6]; 30 μM, PAS/Plasma, Post-UV): 0.3 µM
Amotosalen concentration ([6]; 30 μM, PAS/Plasma, Pre-UV): 30.5 µM
Amotosalen concentration ([6]; 30 μM, Plasma, Post-UV): 1.1 µM
Amotosalen concentration ([6]; 30 μM, Plasma, Pre-UV): 32.7 µM
Amotosalen concentration ([6]; 60 μM, PAS/Plasma, Post-UV): 0.7 µM
Amotosalen concentration ([6]; 60 μM, PAS/Plasma, Pre-UV): 61.2 µM
Amotosalen concentration ([6]; 60 μM, Plasma, Post-UV): 2.3 µM
Amotosalen concentration ([6]; 60 μM, Plasma, Pre-UV): 62.0 µM
Amotosalen concentration ([6]; 90 μM, PAS/Plasma, Post-UV): 1.0 µM
Amotosalen concentration ([6]; 90 μM, PAS/Plasma, Pre-UV): 90.5 µM
Amotosalen concentration ([6]; 90 μM, Plasma, Post-UV): 4.0 µM
Amotosalen concentration ([6]; 90 μM, Plasma, Pre-UV): 89.7 µM
Amotosalen concentration ([6]; 110 μM, PAS/Plasma, Post-UV): 1.2 µM
Amotosalen concentration ([6]; 110 μM, PAS/Plasma, Pre-UV): 120.7 µM
Amotosalen concentration ([6]; 110 μM, Plasma, Post-UV): 5.5 µM
Amotosalen concentration ([6]; 110 μM, Plasma, Pre-UV): 105.8 µM
